Here are results for one compound from patent US20130095059A1, “INHALED NO DONOR KMUPS DERIVATIVE PREVENTING ALLERGIC PULMONARY VASCULAR AND BRONCHIAL INFLAMMATION VIA SUPPRESSED CYTOKINES, INOS AND INFLAMMATORY CELL COUNTS IN ASTHMA MODEL” (priority 2007, published 2013).

One experiment relates to IL-13. The experiment can be described thus: Ovalbumine model, plasma IL-13 (ELISA). The format is in vivo, mice. The settings on record: mice sensitized and challenged by ovalbumine. Here is the method: (§1) In this long-term experiment, 6-8 week old BALB/c female mice were sensitized on days 1 and 8 by intra-peritoneal injection (i.p.) of ovalbumine (10 μg) (Sigma-Aldrich, Schnelldorf, Germany) adsorbed to 2 mg aluminum hydroxide (AlumInject; Perbio, Erembodegem, Belgium). Mice were divided into three groups. In Group 1, a control group was only exposed to saline nebulization by aerosol. The other 2 groups were subjected to ovalbumine (1%) nebulization. Before each challenge with ovalbumine, mice were either exposed to saline nebulization (Group 2) or KMUP-1 nebulization (5 mM) for 30 min by aerosol (Group 3).
(In general: ELISA stands for enzyme-linked immunosorbent assay.)

The test system of the next experiment is IL-5. As to the kind of experiment: Ovalbumine model, plasma IL-5 (ELISA). The format is in vivo, mice. As to conditions: mice sensitized and challenged by ovalbumine. On the procedure: as §1
The subject of another experiment is AKT. The experiment can be described thus: 5-HT-induced AKT phosphorylation in PASMCs. The format is cell-based, Wistar rats. The settings on record: 1-100 μM, 24 h pre-incubation. On the procedure:
(§2) PASMCs were stimulated with 5-HT or not, as indicated. Cells were treated with KMUP-1 for 24 h before 5-HT stimulation. Whole lysates were collected and resolved by SDS-PAGE as previously described. Primary antibodies were anti-β-actin at: 1:10,000 dilution and anti-RhoA, anti-ROCK, antiphospho-ERK1/2, anti-phospho-AKT, anti-ERK1/2, anti-AKT, anti-5HTT, anti-5-HT2B and anti-eNOS at 1:1000. All blots were incubated with antibodies at 4° C. overnight. After being washed, the appropriate secondary antibodies were added at a dilution of 1:1000 for 1 h at room temperature. After extensive washing, blots were developed with a Super Signal enhanced chemiluminescence kit (Biorad, CA, USA) and visualized on Kodak AR film.
(§3) The expression of RhoA/ROCK and phosphorylation of ERK1/2 and AKT kinase in PASMCs were assessed by incubating the PASMCs with 5-HT (10 μM) for 15 min (peak time for RhoA/ROCK, ERK1/2 and AKT phosphorylation) and 5-HTT for 10 min (peak time for 5-HTT) after KMUP-1 (1-100 μM) was added to the culture of PASMCs for 24 h.

A further experiment has as its system PASMCs. As to the kind of experiment: Cell migration (wound) assay of PASMCs. As to conditions: 10-100 μM; 5-HT 10 μM 24 h. The experiment is classed as cell-based, Wistar rats. On the procedure: Migration of PASMCs was assessed using a wound assay model in which cells grown to confluence on 6 well dishes were scraped with the edge of a fine razor. The wound edge was viewed and photographed under a microscope (Nikon, Tokyo, Japan) before and after culture for 24 h in serum-free DMEM in the presence of 5HT (10 μM). The distance the cells migrated from the wound surface was then manually measured.

The next experiment has as its system ERK1/2. As to the kind of experiment: 5-HT-induced ERK1/2 phosphorylation in PASMCs. The format is cell-based, Wistar rats. As to conditions: 1-100 μM, 24 h pre-incubation. On the procedure:
as §2, §3

The target of a further experiment is T1, 5-HT2A receptor (Homo sapiens, UniProt P28223).
T1 construct: full length clones of 5-HT2A, 5-HT2B and 5-HT2C receptor were prepared from CHO-K1 cells; expressed in transfected cells; host or cells: CHO-K1
T1 sequence (P28223 whole entry): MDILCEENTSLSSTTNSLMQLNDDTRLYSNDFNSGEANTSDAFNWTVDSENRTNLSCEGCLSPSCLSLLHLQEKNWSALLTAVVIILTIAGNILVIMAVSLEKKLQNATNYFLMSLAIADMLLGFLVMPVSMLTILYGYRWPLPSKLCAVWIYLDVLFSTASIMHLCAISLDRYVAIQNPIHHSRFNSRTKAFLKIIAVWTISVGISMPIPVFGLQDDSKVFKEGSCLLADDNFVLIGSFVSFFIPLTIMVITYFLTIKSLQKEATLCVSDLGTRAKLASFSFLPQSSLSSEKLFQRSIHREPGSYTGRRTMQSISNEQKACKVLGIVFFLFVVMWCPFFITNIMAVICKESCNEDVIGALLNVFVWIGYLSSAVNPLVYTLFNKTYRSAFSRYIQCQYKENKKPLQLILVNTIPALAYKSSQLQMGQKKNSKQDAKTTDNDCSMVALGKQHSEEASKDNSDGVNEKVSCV
As to the kind of experiment: Displacement of radioligand binding, 5-HT2A. The settings on record: [^3H]-ketanserin, human recombinant CHO-K1 cells. On the procedure: Displacement of Radioligand Binding Assay
As described previously, full length clones of 5-HT2A, 5-HT2B and 5-HT2C receptor were prepared from CHO-K1 cells. […] IC50 represents the concentration of competing ligand which displaces 50% of the specific binding of the radioligand. Ki values for competition curves were calculated using the Cheng-Prusoff equation (Cheng, 2001).

For another experiment, the system named is RhoA. As to the kind of experiment: 5-HT-induced RhoA translocation in PASMCs. The experiment is classed as cell-based, Wistar rats. The settings on record: 24 h treatment, 1-100 μM. On the procedure:
Previous reports have shown that the active form of RhoA is translocated from the cytosol to the plasma membrane, where it activates Rho kinase. Therefore, the membrane/cytosol ratio of RhoA is considered a measure of RhoA activity. The cytosol and membrane protein of PASMCs were extracted with a CNM (cytosol, nuclear, membrane) kit. To assess membrane trans-location of RhoA, protein in membrane and cytosolic fractions was determined by standard Western blot analysis using mouse monoclonal anti-RhoA antibody (1:1000 dilution, Santa Cruz Biotechnology) and a peroxidase-labeled anti-mouse immunoglobulin (Ig) G antibody (1:1000 dilution, Santa Cruz Biotechnology, CA, USA). The relative density of membrane to cytosolic RhoA was determined using NIH imaging software.
as §3

The test system of a further experiment is ROCK. The experiment can be described thus: 5-HT-induced ROCK expression in PASMCs. As to conditions: 1-100 μM, 24 h. The format is cell-based, Wistar rats. Here is the method: as §2, §3
The test system of the next experiment is NOx. As to the kind of experiment: Ovalbumine model, NO metabolites (NOx) in BALF. The experiment is classed as in vivo, BALB/c mice. The settings on record: 24 hrs after last challenge; basal 65.4±8.2, ovalbumine 162.8±15.7. On the procedure: as §1
The remaining BALF was centrifuged (900 g, 1200 rpm, 10 min) and the supernatant frozen (−80° C.) until determination of nitrite and nitrate by the Griess reaction. BALF (100 μL) was incubated (37° C.) for 30 min with N-2-hydroxyethylpiperazine-N′-ethane sulphonic acid buffer (HEPES) (50 mM, pH 7.4), flavin adenine dinucleotide (5 μM), nicotinamide adenine dinucleotide phosphate (0.1 mM), distilled water (290 μl), and nitrate reductase (0.2 U/ml) for the conversion of nitrate into nitrite. […] The samples were then incubated (25° C., 10 min) with Griess reagent [N-(1-naphthyl)-ethylenediamine: 0.2% (w/v), sulphanilamide: 2% (w/v), solubilized in double-distilled water: 95% and phosphoric acid: 5% (v/v)] and the absorbance measured at 540 nm. […]

A further experiment deals with BALF cells. As to the kind of experiment: Ovalbumine model, bronchoalveolar lavage cell counts. The experiment is classed as in vivo, BALB/c mice. The settings on record: 24 hrs after the last ovalbumine challenge; nebulization. On the procedure:
as §1
After the sacrifice of mice, a cannula was placed in the trachea for bronchoalveolar lavage by gentle manual aspiration, using cold PBS-EDTA (0.05 mM, 1 ml) (Calbiochem, Darmstadt, Germany) as previously described (Cataldo D D, et al., 2002). The broncho alveolar lavage fluid (BALF) was centrifuged at 4° C. for 10 min (1200 rpm). The supernatant was frozen at −80° C. for protein assessment and the cell pellet was resuspended in PBS-EDTA (0.05 mM, 1 ml). Total cell counts were performed manually using a thoma chamber. The differential cell counts were performed using morphologic criteria on cytocentrifuged preparations (Cytospin) after staining with Diff-Quick (Dade, Belgium). Differential cell counts were performed by one blinded observer unaware of the experimental treatment.

As usually defined, the IC50 is the point on the concentration scale where inhibition reaches its midpoint. The term Ki denotes the equilibrium dissociation constant of an inhibitor or competing ligand from its target. As for `Cn1c(=O)c2c(ncn2CCN2CCN(c3ccccc3Cl)CC2)n(C)c1=O` [KMUP-1, 7-[2-[4-(2-chlorophenyl)piperazinyl]ethyl]-1,3-dimethylxanthine], the “IL-13 levels in the plasma” value in the experiment with IL-13 is reported as “inhibited”. For the same compound, in the experiment with IL-5, the “IL-5 levels in the plasma” value is listed as “inhibited”. For the same compound, in the experiment with AKT, the “5-HT-stimulated AKT phosphorylation” value is listed as “concentration-dependently reduced”. In addition, the “5-HT-induced PASMCs migration” value in the experiment on PASMCs is listed as “concentration-dependently suppressed”. Also, the “5-HT-stimulated ERK1/2 phosphorylation” value with ERK1/2 is listed as “concentration-dependently reduced”. The IC50 on 5-HT2A receptor was 340 nM. Besides, the Ki on 5-HT2A receptor (Cheng-Prusoff) is 97.1 nM. The “5-HT-induced RhoA membrane association” value in the experiment on RhoA is on record as “dose-dependently reversed”. Further, in the experiment with ROCK, the “5-HT-induced ROCK” value is given as “significantly inhibited”. In addition, in the experiment with NOx, the “levels of NOx (nitrate+nitrite) in BALF” value amounted to 86.3 ± 17.3 µM. Besides, the “increase in total cells, lymphocytes and eosinophils in the airway lumen” value with BALF cells was “significantly reduced”.
